US20230381139A1, “METHODS OF TREATING AND/OR PREVENTING ALZHEIMER’S DISEASE WITH R-CARVEDILOL” (priority 2020, published 2023)

Columns and labels:
[1] = system: subiculum pyramidal neurons of 5×FAD+/− mice; experiment: Nissl staining, neuronal cell loss in 5×FAD+/− mice; type: in vivo, mouse; conditions: 6-7 months old 5×FAD+/− mice, pre-treatment 3.2 mg/kg/day for 1 month; vs DMSO
Procedure: Adult genetically engineered mice, 5×FAD^+/− (Oakley et al., 2006), RyR2-E4872Q^+/− (EQ^+/−) (Chen et al., 2014), 5×FAD^+/−/RyR2-E4872Q^+/− (5×FAD^+/−/EQ^+/−), and wildtype (WT) littermates of both sexes were used. R-carvedilol (R-CV) (at doses of 0.8, 1.6 or 3.2 mg/kg/day), racemic carvedilol (3.2 mg/kg/day), and vehicle control (DMSO) were delivered to 5×FAD^+/− mice in drinking water for one month, starting at different ages before (2-3 months old) or after (3-4 months old) the occurrence of AD pathologies (Oakley et al., 2006). To assess the effects of genetically and pharmacologically limiting RyR2 open time on the prevention and rescue of AD deficits in different stages (early, moderate, and late) of AD progression, animals at different ages (from 2-15 months) were used. As reported (Oakley et al., 2006), there was an age-dependence of AD progression in the 5×FAD^+/− mice. No sex-dependent differences in AD progression in these mice was observed. For 2-photon Ca^2+ imaging experiments, 5×FAD, RyR2 WT, and RyR2 mutant mice were cross-bred with the heterozygous Thy1-GCaMP6f transgenic mice (Chen et al., 2012; Chen et al., 2013) (GP5.17, JAX 025393) to express the GCaMP6f Ca^2+ sensing probe (driven by the Thy1 promotor) in hippocampal neurons in each of the genotypes used. […]

[2] = system: hippocampal CA3-CA1 pathway of 5×FAD+/− mice; experiment: Long-term potentiation / fEPSP recording in hippocampal slices from treated 5×FAD+/− mice; type: in vivo, mouse; conditions: vs DMSO
Procedure: Adult genetically engineered mice, 5×FAD^+/− (Oakley et al., 2006), RyR2-E4872Q^+/− (EQ^+/−) (Chen et al., 2014), 5×FAD^+/−/RyR2-E4872Q^+/− (5×FAD^+/−/EQ^+/−), and wildtype (WT) littermates of both sexes were used. R-carvedilol (R-CV) (at doses of 0.8, 1.6 or 3.2 mg/kg/day), racemic carvedilol (3.2 mg/kg/day), and vehicle control (DMSO) were delivered to 5×FAD^+/− mice in drinking water for one month, starting at different ages before (2-3 months old) or after (3-4 months old) the occurrence of AD pathologies (Oakley et al., 2006). To assess the effects of genetically and pharmacologically limiting RyR2 open time on the prevention and rescue of AD deficits in different stages (early, moderate, and late) of AD progression, animals at different ages (from 2-15 months) were used. […] For 2-photon Ca^2+ imaging experiments, 5×FAD, RyR2 WT, and RyR2 mutant mice were cross-bred with the heterozygous Thy1-GCaMP6f transgenic mice (Chen et al., 2012; Chen et al., 2013) (GP5.17, JAX 025393) to express the GCaMP6f Ca^2+ sensing probe (driven by the Thy1 promotor) in hippocampal neurons in each of the genotypes used.
Schaffer collateral fibers were stimulated at the CA3 subfield to record field excitatory postsynaptic potentials (fEPSPs) in the CA1 stratum radiatum of transverse hippocampal slices ([…]) from all genotypes and drug-treated mice at different ages. After recovering at room temperature for 1 h (or 2 h for brain slices from drug-treated mice), hippocampal slices were allowed to recover in the recording chamber for additional 10 min. To evaluate basal synaptic transmission, different stimulation strengths (0 μA to 200 μA in steps of 20 μA) were applied and plotted fEPSP slopes versus the current input to compare the slope of input/output (I/O) curves of fEPSP. In the experiments that followed, stimulus current was adjusted so that fEPSP stabilized at 40-50% of maximum. Baseline was recorded for at least […] until the differences among fEPSP slopes were within 10%. Long-term potentiation (LTP) was induced using a tetanic high-frequency stimulation (HFS; 4 trains of 100 pulses at 100 Hz, with 20-sec intervals). Synaptic responses were recorded for at least 60 min after tetanization and quantified as the slope of the evoked fEPSP as percentage of the baseline.

## COc1ccccc1OCCNC[C@@H](O)COc1cccc2[nH]c3ccccc3c12 [R-carvedilol, R-(+)-carvedilol]
[1]
  subiculum neuronal cell loss: protected against
[2]; 3.2 mg/kg/day for one month started at 2-3 months of age (before AD symptoms), slices at 3-4 months
  LTP impairment: prevented
[2]; 3.2 mg/kg/day for one month started at 3-4 months of age (after AD symptom), slices at 4-5 months
  LTP impairment: rescued
[2]; 5×FAD+/− hippocampal brain slices, 3-4, 4-5 and 6-7 months old treated mice
  reduced basal synaptic transmission (fEPSP slope vs stimulus intensity): restored
[2]; 6-7 months old 5×FAD+/− mice after 1-month treatment with 3.2 mg/kg/day
  LTP deficit: rescues
